Data: US12630829B2, “Gene encoding cytochrome P450 and use thereof” (KUMIAI CHEMICAL INDUSTRY CO., LTD., priority 2020, dated 2026)
“Also recorded” adds a separate entry of the source.

Tested on: AK454412 (wheat-derived P450) co-expressed with TaCPR
Assay: In vitro metabolism test using co-expression crude enzyme of AK454412 and TaCPR (LC/MS)
Type: in vitro ADME
Conditions: 10 μM fenquinotrione, 1 mg crude enzyme, 1 mM β-NADPH, 30° C., 1 hour
Method: A single colony of the recombinant E. coli into which each of the above-described two expression constructs had been introduced was inoculated in 3 ml of LB liquid medium, followed by culturing at 37° C. and 200 rpm overnight. 2.5 mL of the resultant culture fluid was added to 250 mL of TB medium (containing 100 ppm carbenicillin and 50 ppm chloramphenicol) held in a 1 L Erlenmeyer flask, followed by culturing at 37° C. and 200 rpm until an OD600 of about 0.5 to 0.6 was obtained. After the resultant flask was cooled with ice, IPTG and aminolaevulinic acid were added thereto to final concentrations of 1 mM and 0.5 mM, respectively, followed by culturing at 20° C. and 110 rpm. 22 hours after the IPTG induction, the resultant culture fluid was centrifuged (4° C., 15,000 rpm, 1 min). A bacterial cell in the obtained 500 mL of culture fluid was suspended in 35 mL of P450 Buffer [50 mM potassium phosphate buffer (pH 7.3), 20% glycerol, 1 mM EDTA, and 1 mM DTT] to be sonicated, followed by centrifugation at 4° C. and at 6,000×g for 10 minutes. The supernatant was centrifuged at 4° C. and at 100,000×g for 1 hour, and a solution obtained by adding P450 Buffer by 1 mL to the obtained precipitate and homogenizing the resultant with a Teflon homogenizer was used as a co-expression crude enzyme solution for AK454412 and TaCPR. […]

Question: `COc1ccc(-n2c(=O)c(C(=O)C3C(=O)CCCC3=O)nc3c(Cl)cccc32)cc1` [fenquinotrione] was tested. Which “metabolic degradation of fenquinotrione (production of the demethylated product, LC/MS)” value did it give?
Answer: Its value is “metabolically degrades fenquinotrione to the demethylated product; also recorded: a parent peak of fenquinotrione was reduced, and a peak of the demethylated product appeared”.
